From patent US9187406B2 (The Research Foundation of State University of New York, priority 2009, dated 2015)
Entries after “also recorded” stand apart in the source; their conditions may differ. Read-outs that look alike come from different tables or passages of the source.

Legend:
[1] = biological target: purified human PMN MMP-8 (Homo sapiens (Human), UniProt P22894); assay: MMP-8 inhibition, synthetic octapeptide substrate, tripeptide product by HPLC; format: biochemical
[2] = biological target: MMP-9 (human leukocyte gelatinase) (Homo sapiens (Human), UniProt P14780); assay: MMP-9 inhibition in vitro, octapeptide/HPLC; format: biochemical
Text: In contrast all three chemically-modified curcumins at 100 μm final concentration inhibited gelatinase activity by 68-100% (FIG. 6 and Table 6).

[3] = biological target: chromatographically-purified MMP-2 (Homo sapiens (Human), UniProt P08253); assay: MMP-2 inhibition in vitro, octapeptide/HPLC; format: biochemical; conditions: for Ratio = IC50 test compound/IC50 standard, MMP-2: standard 1,10-phenanthroline
[4] = biological target: chromatographically-purified MMP-13 (Collagenase-3) (Homo sapiens (Human), UniProt P45452); assay: MMP-13 inhibition in vitro, octapeptide/HPLC; format: biochemical; conditions: for Ratio = IC50 test compound/IC50 standard, MMP-13: standard 1,10-phenanthroline
[5] = Solubility in aqueous solutions; format: physicochemical
[6] = test system: neonatal rat ventricular myocytes; assay: Hydrogen peroxide induced LDH release; format: cell-based; conditions: 10 μM, H2O2 100 μM
Experimental: Test compounds and concentrations (MMP inhibitors, MMPi): • 1. GM-6001: 10 μM • 2. ONO-4817: 10 μM • 3.
Neonatal rat ventricular myocytes, serum starved for 24 h, were treated with the inhibitors 1 h prior to the addition of 100 μM of hydrogen peroxide (Sigma). LDH release in the conditioned media was quantified using CytoTox-ONE Homogeneous Membrane Integrity Assay reagent (Promega) at the indicated time points.

[7] = Extractability/recovery from human serum by HPLC
Experimental: Detection of compounds & extractability/recovery from human serum (for future use to determine in vivo pharmacokinetics) was achieved using HPLC. The HPLC detection method is briefly described herein. 50 μl of buffer or human serum containing 166.67 μM, 16.67 μM and 1.67 μM of the compounds were incubated with 100 μl pre-cooled (−10° C.) extraction solvent containing CAN-MeOH-0.5M oxalic acid at a ratio of 60:30:10. The mixture was vortexed and centrifuged at 10,000 rpm for 10 min. The supernatant was then aliquoted and injected into an HPLC for analysis. Stock solutions of the compounds were made 100× in DMSO, then further diluted with buffer or serum.

[8] = test system: human monocytes; assay: Cytotoxicity in human monocytes (MTS); format: cell-based
Experimental: (§1) Briefly, human peripheral blood monocytes (HMs) were isolated from a leukocyte concentrate by density gradient centrifugation (Lymphoprep) and the isolated HMs cultured (2 h, 37° C.) to remove non-adherent cells. The adherent HMs were cultured for 18 h (1×10^6 cells/well, 24-well plates)±endotoxin (LPS)±different compounds dissolved in DMSO (the final concentration of DMSO in the RPMI serum-free culture media with Pen./Strep. antibiotics was no greater than 0.5%). After incubation, the proinflammatory cytokines, TNFα, IL-1β, MCP-1 and IL-6 were measured in the conditioned media by ELISA and cytotoxicity was assessed by measuring the absorbance (490 nm) of formazan produced by reduction of MTS. The HMs alone ±0.1-0.5% DMSO produced minimal levels of these pro-inflammatory cytokines. However, addition of 100 ng/ml or 10 μg/ml of LPS both dramatically stimulated cytokine production.

[9] = test system: TNF-α; assay: TNF-α production by LPS-stimulated monocytes (ELISA); format: cell-based, human
Experimental: as §1

[10] = test system: human monocytes; assay: Cytotoxicity in human monocytes (MTS); format: cell-based; remark: listed apart in the source
[11] = biological target: MMP-2 (Mus musculus (Mouse), UniProt P33434); conditions: 15 μM; cited from earlier work

Sequence of chromatographically-purified MMP-2 (P08253 110-660): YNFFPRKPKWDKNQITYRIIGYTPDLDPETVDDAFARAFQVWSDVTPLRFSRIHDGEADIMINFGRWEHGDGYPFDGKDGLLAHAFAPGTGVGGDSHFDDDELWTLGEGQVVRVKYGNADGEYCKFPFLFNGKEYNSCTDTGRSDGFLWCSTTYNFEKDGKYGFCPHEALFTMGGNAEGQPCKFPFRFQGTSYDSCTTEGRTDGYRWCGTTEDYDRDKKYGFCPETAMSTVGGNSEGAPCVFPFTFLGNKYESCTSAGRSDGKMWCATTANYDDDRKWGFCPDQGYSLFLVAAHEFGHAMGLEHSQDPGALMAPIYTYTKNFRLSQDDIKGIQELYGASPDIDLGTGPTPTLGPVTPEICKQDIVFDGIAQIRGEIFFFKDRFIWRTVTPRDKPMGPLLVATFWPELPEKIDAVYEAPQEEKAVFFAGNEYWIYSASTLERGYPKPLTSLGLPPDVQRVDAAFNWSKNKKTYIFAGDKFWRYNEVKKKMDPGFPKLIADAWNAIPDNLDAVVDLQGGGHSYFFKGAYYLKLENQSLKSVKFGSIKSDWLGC
Sequence of MMP-9 (human leukocyte gelatinase) (P14780 94-707): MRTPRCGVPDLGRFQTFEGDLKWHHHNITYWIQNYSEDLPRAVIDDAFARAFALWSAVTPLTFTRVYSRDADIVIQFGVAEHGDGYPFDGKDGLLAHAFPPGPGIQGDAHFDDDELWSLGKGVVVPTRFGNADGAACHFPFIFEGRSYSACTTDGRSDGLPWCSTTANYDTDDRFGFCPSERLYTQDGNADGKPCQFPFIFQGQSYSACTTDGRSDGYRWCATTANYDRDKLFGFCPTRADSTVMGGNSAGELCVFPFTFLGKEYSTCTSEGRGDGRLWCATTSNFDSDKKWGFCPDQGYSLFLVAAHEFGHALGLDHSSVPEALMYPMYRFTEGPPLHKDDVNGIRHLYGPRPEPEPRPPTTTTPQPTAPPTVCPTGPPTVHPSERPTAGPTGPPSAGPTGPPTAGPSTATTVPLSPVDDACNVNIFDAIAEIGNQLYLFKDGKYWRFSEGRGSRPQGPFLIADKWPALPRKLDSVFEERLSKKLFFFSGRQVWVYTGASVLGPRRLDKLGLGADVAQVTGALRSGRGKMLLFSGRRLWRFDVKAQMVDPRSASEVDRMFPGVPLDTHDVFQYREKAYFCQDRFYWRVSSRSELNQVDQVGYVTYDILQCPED
Sequence of purified human PMN MMP-8 (P22894 101-467): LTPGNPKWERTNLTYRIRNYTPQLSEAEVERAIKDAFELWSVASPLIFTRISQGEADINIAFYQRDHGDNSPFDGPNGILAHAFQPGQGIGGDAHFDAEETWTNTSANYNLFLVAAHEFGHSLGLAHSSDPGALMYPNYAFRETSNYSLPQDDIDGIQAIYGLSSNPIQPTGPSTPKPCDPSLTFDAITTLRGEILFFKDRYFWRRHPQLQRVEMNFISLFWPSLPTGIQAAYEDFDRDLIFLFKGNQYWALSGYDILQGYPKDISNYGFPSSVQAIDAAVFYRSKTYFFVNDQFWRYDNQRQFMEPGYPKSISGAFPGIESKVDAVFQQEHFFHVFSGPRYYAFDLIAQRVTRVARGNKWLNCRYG

| SMILES | IC50 [2] | IC50 ([3]; read-out: IC50 MMP-2) | Ratio = IC50 test compound/IC50 standard, MMP-2 [3] | IC50 [4] | Ratio = IC50 test compound/IC50 standard, MMP-13 [4] | further results |
| --- | --- | --- | --- | --- | --- | --- |
| COC(=O)C(C(=O)/C=C/c1ccccc1)C(=O)/C=C/c1ccccc1 [Compound 2] | – | – | – | – | – | IC50 against purified hMMP-8 ([1]; Table 1 experiments): did not show a dose response; also recorded: No dose response |
| COC(=O)C(C(=O)/C=C/c1ccc(O)cc1)C(=O)/C=C/c1ccc(O)cc1 [Compound 3, 1,7-Bis(4-hydroxyphenyl)-4-methoxycarbonylhepta-1E,6E-dien-3,5-dione] | 6 µM | 70 µM | 1.0 | 8 µM | 2.0 | IC50 ([1]; Example 7 experiment, 1 mM Ca++, 37° C., read-out: IC50, human neutrophil collagenase (MMP-8)): ≤ 5 µM; Solubility in aqueous solutions (comparative) [5]: more soluble in aqueous solutions than compound 1 |
| COc1cc(/C=C/C(=O)C(C(=O)/C=C/c2ccc(O)c(OC)c2)C(=O)Nc2ccccc2)ccc1O [Compound 6, 1,7-Bis(4-hydroxy-3-methoxyphenyl)-4-N-phenylaminocarbonylhepta-1E,6E-dien-3,5-dione] | – | 85 µM | – | – | – | – |
| O=C(/C=C/c1ccc(O)cc1)C(C(=O)/C=C/c1ccc(O)cc1)C(=O)Nc1ccccc1 [Compound 7, 1,7-Bis(4-hydroxyphenyl)-4-N-phenylaminocarbonylhepta-1E,6E-dien-3,5-dione] | – | 125 µM | 1.8 | < 1 µM | <0.3 | – |
| CNC(=O)[C@H](Cc1c[nH]c2ccccc12)NC(=O)[C@@H](CC(=O)NO)CC(C)C [GM-6001, reference compound] | – | – | – | – | – | Effect on LDH release [6]: did not affect LDH release |
| CCOCOC[C@H](C[C@H](C)C(=O)NO)NC(=O)c1ccc(Oc2ccccc2)cc1 [ONO-4817, reference compound] | – | – | – | – | – | Effect on LDH release [6]: did not affect LDH release |

Now from value to molecule, other results behind:

| IC50 [2] | IC50 ([3]; read-out: IC50 MMP-2) | Ratio = IC50 test compound/IC50 standard, MMP-2 [3] | IC50 [4] | Ratio = IC50 test compound/IC50 standard, MMP-13 [4] | SMILES | further results |
| --- | --- | --- | --- | --- | --- | --- |
| 9 µM | 70 µM | 1.0 | 4 µM | 1.0 | c1cnc2c(c1)ccc1cccnc12 [1,10-O-phenanthroline, reference compound] | IC50 ([1]; Table 1 experiments, read-out: IC50 against purified hMMP-8): 10 to 35 µM; Ratio of each IC50 to IC50 of 1,10-O-phenanthroline ([1]; hMMP-8): 1 = 35 μM 1 = 10 μM |
| 17 µM | > 250 µM | >3.6 | 250 µM | 62.5 | COc1cc(/C=C/C(=O)CC(=O)/C=C/c2ccc(N(C)C)cc2)ccc1O [Compound 4] | – |
| – | – | – | 45 µM | 11.3 | CN(C)c1ccc(/C=C/C(=O)C(C(=O)/C=C/c2ccc(N(C)C)cc2)C(=O)Nc2ccccc2)cc1 [Compound 8, 1,7-Bis(4-dimethylaminophenyl)-4-N-phenylaminocarbonylhepta-1E,6E-dien-3,5-dione] | IC50 MMP-2 (μM) [3]: Unmeasurable* |
| 29 µM | – | – | – | – | COc1cc(/C=C/C(=O)CC(=O)/C=C/c2ccc(O)c(OC)c2)ccc1O [curcumin] | Recovery from human serum ([7]; HPLC after solvent extraction): 83-94%; recovery ([7]; human, human serum): 83 to 94%; Cytotoxicity Monocytes @ 18 h incubation ([8]; 10 uM): 10 uM- 0%; Cytotoxicity Monocytes @ 18 h incubation ([8]; 20 uM): 20 uM- 20%; Cytotoxicity Monocytes @ 18 h incubation ([8]; 50 uM): 50 uM- 77%; Cytotoxicity in human monocyte culture ([8]; 50 and 100 μM): significant cytotoxicity; Decrease of TNFα production by endotoxin-stimulated human monocytes ([9]; 10 and 20 μM): no effect; Decrease of TNFα production by endotoxin-stimulated human monocytes ([9]; 50 and 100 μM): 80-90%; Maximum Inhibition At 100 μM compound, MMP-9 ([2]; 100 μM): 58%; IC50 [3]: 85 µM; Solubility in aqueous solutions (comparative) [5]: insoluble; Cytotoxicity Monocytes @ 5 h incubation ([10]; 10 uM): 10 uM- 0%; Cytotoxicity Monocytes @ 5 h incubation ([10]; 20 uM): 20 uM- 20%; Cytotoxicity Monocytes @ 5 h incubation ([10]; 50 uM): 50 uM- 50%; Effect on MMP-2 activity [11]: significant inhibitory effect |
